Data published in ChEMBL document CHEMBL1141411, “Structural characterization of daptomycin analogues A21978C1-3(d-Asn11) produced by a recombinant Streptomyces roseosporus strain” (2007).
≈ marks a conversion by molar mass, not a printed value.

Test system: Staphylococcus aureus
Test: Antibacterial activity against Staphylococcus aureus 42 by broth microdilution method
Assay type: functional

| SMILES | MIC [µM] |
| --- | --- |
| CC(C)CCCCCCCCC(=O)N[C@@H](Cc1c[nH]c2ccccc12)C(=O)N[C@H](CC(N)=O)C(=O)N[C@@H](CC(=O)O)C(=O)N[C@@H]1C(=O)NCC(=O)N[C@@H](CCCN)C(=O)N[C@@H](CC(=O)O)C(=O)N[C@H](C)C(=O)N[C@@H](CC(=O)O)C(=O)NCC(=O)N[C@H](CC(N)=O)C(=O)N[C@@H]([C@H](C)CC(=O)O)C(=O)N[C@@H](CC(=O)c2ccccc2N)C(=O)O[C@@H]1C | 0.3 (≈ 0.503 µg/mL) |
| CCC(C)CCCCCCC(=O)N[C@@H](Cc1c[nH]c2ccccc12)C(=O)N[C@H](CC(N)=O)C(=O)N[C@@H](CC(=O)O)C(=O)N[C@@H]1C(=O)NCC(=O)N[C@@H](CCCN)C(=O)N[C@@H](CC(=O)O)C(=O)N[C@H](C)C(=O)N[C@@H](CC(=O)O)C(=O)NCC(=O)N[C@H](CC(N)=O)C(=O)N[C@@H]([C@H](C)CC(=O)O)C(=O)N[C@@H](CC(=O)c2ccccc2N)C(=O)O[C@@H]1C (some centres undefined) | 0.6 (≈ 0.997 µg/mL) |
| CCC(C)CCCCCCCCC(=O)N[C@@H](Cc1c[nH]c2ccccc12)C(=O)N[C@H](CC(N)=O)C(=O)N[C@@H](CC(=O)O)C(=O)N[C@@H]1C(=O)NCC(=O)N[C@@H](CCCN)C(=O)N[C@@H](CC(=O)O)C(=O)N[C@H](C)C(=O)N[C@@H](CC(=O)O)C(=O)NCC(=O)N[C@H](CC(N)=O)C(=O)N[C@@H]([C@H](C)CC(=O)O)C(=O)N[C@@H](CC(=O)c2ccccc2N)C(=O)O[C@@H]1C (some centres undefined) | 0.15 (≈ 0.253 µg/mL) |
| CCCCCCCCCC(=O)N[C@@H](Cc1c[nH]c2ccccc12)C(=O)N[C@H](CC(N)=O)C(=O)N[C@@H](CC(=O)O)C(=O)N[C@@H]1C(=O)NCC(=O)N[C@@H](CCCN)C(=O)N[C@@H](CC(=O)O)C(=O)N[C@H](C)C(=O)N[C@@H](CC(=O)O)C(=O)NCC(=O)N[C@H](CO)C(=O)N[C@@H]([C@H](C)CC(=O)O)C(=O)N[C@@H](CC(=O)c2ccccc2N)C(=O)O[C@@H]1C | 0.6 (≈ 0.972 µg/mL) |
